Source: PMC2361176, “Inhibitory effects of retinoic acid metabolism blocking agents (RAMBAs) on the growth of human prostate cancer cells and LNCaP prostate tumour xenografts in SCID mice” (British Journal of Cancer, 2006)
Entries after “also recorded” stand apart in the source; their conditions may differ.

Key:
CYP26 = biological target: T1, CYP26 (Homo sapiens, UniProt O43174); test: Cellular CYP26 assay: inhibition of ATRA metabolism in intact LNCaP cells; format: cell-based; details: intact LNCaP cells pretreated with 1 μM ATRA; [11,12-3H]-ATRA substrate; HPLC
T1 construct: LNCaP cells were incubated with 1 μM ATRA for 24 h to induce the CYP26 enzyme; endogenous in cells; host or cells: LNCaP human prostate cancer cells, pre-treated with 1 μM ATRA
T1 sequence (O43174 1-497): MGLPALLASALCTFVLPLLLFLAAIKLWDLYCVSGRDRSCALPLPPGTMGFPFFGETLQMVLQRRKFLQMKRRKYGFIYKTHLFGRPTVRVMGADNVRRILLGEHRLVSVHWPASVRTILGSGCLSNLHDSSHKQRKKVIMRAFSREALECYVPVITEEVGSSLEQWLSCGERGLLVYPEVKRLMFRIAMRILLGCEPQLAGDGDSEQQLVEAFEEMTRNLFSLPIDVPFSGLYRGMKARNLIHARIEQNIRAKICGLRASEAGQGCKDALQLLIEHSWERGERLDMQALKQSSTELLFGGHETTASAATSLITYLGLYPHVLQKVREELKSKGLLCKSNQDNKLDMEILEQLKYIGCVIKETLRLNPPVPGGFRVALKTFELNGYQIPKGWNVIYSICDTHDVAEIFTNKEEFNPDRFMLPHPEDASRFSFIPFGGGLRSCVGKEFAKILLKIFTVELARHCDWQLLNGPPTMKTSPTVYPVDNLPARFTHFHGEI
Description: Following ATRA treatment, the LNCaP cells were incubated with 0.1 or 0.8 μM [11,12-^3H]-ATRA (PerkinElmer Life and Analytical Sciences, Inc., Boston, MA, USA) for 5 h. Following the 5 h incubation, the medium was collected and the cells were trypsinised and collected.

cytokeratin 8/18 = test: Differentiation assay (Western-blot analysis of cytokeratins 8/18); format: cell-based, human; details: LNCaP cells, 6 days; for cytokeratin 8/18 expression, fold over control, combination with ATRA: 1 μM RAMBA and 1 μM ATRA; for cytokeratin 8/18 expression, fold over control, combination with ATRA / cytokeratin 8/18 expression, fold over control: control 1±0.07; for cytokeratin 8/18 expression, fold over control: 1 μM agent alone; for expression of cytokeratin 8/18 (concentration dependence): various concentrations
Description: LNCaP cells were scraped with 1.5 ml of PBS. The cells were collected by centrifugation, resuspended in ice-cold cell lysis buffer (0.1 M Tris-HCl, 0.5% Triton X-100, and protease inhibitor cocktail (Boehringer, Indianapolis, IN, USA)), and sonicated. The homogenates were incubated on ice for 30 min, subjected to centrifugation at 13 000 × g for 30 min, and the supernatants were separated and stored at −80°C until use. Protein concentrations were determined by the Bradford method using a Bio-Rad kit (Hercules, CA, USA). A measure of 50 μg of cell lysate was subjected to 10% sodium dodecyl sulfate-polyacrylamide gel electrophoresis (SDS–PAGE) using the Mini-PROTEAN3 electrophoresis module assembly (Bio-Rad, Hercules, CA, USA) at 60 V at room temperature. The separated lysates on 10% SDS–PAGE gel were transferred onto Hybond ECL nitrocellulose membrane (Amersham, Arlington Heights, IL, USA) overnight at 20 V at 4°C. Western-blot analysis was performed on the nitrocellulose membrane. The membrane was blocked for 1 h in 10% nonfat dried milk and PBS containing 0.5% Tween 20 (PBS-T) at room temperature. Following washing in PBS-T, the membrane was incubated with mouse monoclonal IgG antibody to cytokeratin 8/18 or β-actin (Santa Cruz Biotechnology, Santa Cruz, CA, USA and Oncogene Research Products, Boston, MA, USA, respectively) dissolved in 10% nonfat dried milk (1 : 5000 or 1 : 10 000), respectively) for l h at room temperature. Following washing, the membrane was incubated with horseradish peroxidase-linked anti-mouse IgG antibody (Amersham, Arlington Heights, IL, USA and Oncogene Research Products, Boston, MA, USA, respectively) dissolved in 10% nonfat dried milk (1 : 1000) for 1 h at room temperature. The membrane was incubated in 4 ml ECL Western Blotting Analysis System (Amersham, Arlington Heights, IL, USA) for 1 min at room temperature. The membrane was resolved on chemiluminescence film (Amersham Hyperfilm High Performance chemiluminescence film, Arlington Heights, IL, USA) and the film was developed using an X-ray developer (M35A X-OMAT Processor, Eastman Kodak Company, Rochester, NY, USA). The intensity of the bands on film was analysed using ImageQuant 5.0 software (Amersham, Arlington Heights, IL, USA). The band intensity corresponds to the level of protein expression of cytokeratin 8/18, which is shown to be expressed in differentiated cells of epithelial origin ([Peehl et al, 1993]; [Hsieh et al, 1995]).

Bcl-2 = test: Western-blot analysis of Bcl-2 in LNCaP cells; format: cell-based, human; details: data not shown
Description: The Western-blot protocol described for cytokeratins 8/18 was followed with some exceptions. Cell lysates (50 μg) were separated on a 15% SDS–PAGE gel. All washing was performed using TBS containing 1% Tween 20 (TBS-T). Blocking was performed using 5% milk in TBS-T. Incubations were performed using rabbit monoclonal IgG antibody to Bad and Bcl-2 (1 : 1000), as well as horseradish peroxidase-linked anti-rabbit IgG antibodies (1 : 2000) (Cell Signaling Technology, Beverly, MA, USA).

LNCaP tumour xenographs = test: In vivo antitumour study, LNCaP human prostate carcinoma xenograft; set-up: species or system male SCID mice; details: 0.033 mmol kg−1 once daily; for reduction in tumour growth compared to control: 6 weeks, P<0.05
Description: All animal studies were performed according to the guidelines and approval of the Animal Care Committee of the University of Maryland School of Medicine, and were consistent with United Kingdom Coordinating Committee on Cancer Research guidelines for the welfare of animals in experimental neoplasia. The procedure was modified from [Grigoryev et al (1999)]. Briefly, LNCaP cells were trypsinised, counted, and suspended in Matrigel (2 × 10^7 cells ml^−1) (Fisher Scientific International, Inc., Hampton, NH, USA). Male SCID mice of 4–6 weeks of age were obtained from the National Cancer Institute (Frederick, MD, USA). Each mouse was inoculated s.c. with 0.1 ml of the cell suspension at two sites in the flank. The size of the tumours was determined by measuring the tumour volumes using calipers. Tumour volumes were calculated using the formula V=4/3 × π × r1^2 × r2(r1<r2). The tumours were allowed to develop to approximately 100 mm^3 before treatment. […] Tumour volumes were measured twice weekly and weights of animals were taken weekly after the initiation of treatment. The mice were subjected to 6 weeks of treatment. The mice were then killed and the tumours were excised, weighed, and stored at −80°C until analysis. Additionally, the plasma was collected with 50 IU of heparin and stored at −80°C until analysis.

Compound	IC50 (CYP26)	cytokeratin 8/18 expression, fold over control, combination with ATRA (cytokeratin 8/18)	cytokeratin 8/18 expression, fold over control (cytokeratin 8/18)	expression of cytokeratin 8/18 (concentration dependence) (cytokeratin 8/18; data not shown)	expression of Bcl-2 (Bcl-2)	tumour growth compared to vehicle control (in words) (LNCaP tumour xenographs)	reduction in tumour growth compared to control (LNCaP tumour xenographs)	cytokeratin 8/18 expression compared to control (cytokeratin 8/18; 5 and 10 μM, P<0.05, data not shown)
CC1=C(/C=C/C(C)=C/C=C/C(C)=C\C(=O)Nc2ccc(O)cc2)C(C)(C)CCC1n1ccnc1 (stereo not shown) [VN/69-1]	90 ± 12.5 nM	1.32 fold	1.19 fold	concentration-dependent increase	did not effect	statistically significantly LNCaP tumour growth inhibition	47%	–
CC1=C(/C=C/C(C)=C/C=C/C(C)=C/C(=O)O)C(C)(C)CCC1 [ATRA, all-trans-retinoic acid, reference compound]	–	–	1.38 fold	concentration-dependent increase	concentration-dependent decrease	statistically significantly LNCaP tumour growth inhibition	75%	significant increase
CC1=C(/C=C/C(C)=C/C=C/C(C)=C/C(=O)n2ccnc2)C(C)(C)CCC1n1ccnc1 (stereo not shown) [VN/50-1]	90 ± 10 nM	1.51 fold	1.23 fold	concentration-dependent increase	did not effect	–	–	–

Second part, led by results:

IC50 (CYP26)	Compound	cytokeratin 8/18 expression, fold over control, combination with ATRA (cytokeratin 8/18)	cytokeratin 8/18 expression, fold over control (cytokeratin 8/18)	expression of cytokeratin 8/18 (concentration dependence) (cytokeratin 8/18; data not shown)	expression of Bcl-2 (Bcl-2)	tumour growth compared to vehicle control (in words) (LNCaP tumour xenographs)	reduction in tumour growth compared to control (LNCaP tumour xenographs)	cytokeratin 8/18 expression compared to control (cytokeratin 8/18; 5 and 10 μM, P<0.05, data not shown)
62.5 ± 12.5 nM	CC1=C(/C=C/C(C)=C/C=C/C(C)=C/C(=O)Nc2ccc(O)cc2)C(C)(C)CCC1n1ccnc1 (stereo not shown) [VN/66-1]	1.48 fold	1.28 fold	concentration-dependent increase	did not effect	statistically significantly LNCaP tumour growth inhibition	44%	–
6.5 ± 1.5 nM	CC1=C(/C=C/C(C)=C/C=C/C(C)=C/C(=O)O)C(C)(C)CCC1n1ccnc1 (stereo not shown) [VN/14-1]	1.59 fold	1.18 fold	concentration-dependent increase	concentration-dependent decrease	ineffective; also recorded: not significantly different	–	–
